One series concerns the target ABL1 (Homo sapiens (Human), UniProt P00519). Description: Kinase profiling, ABL1 10-dose IC50. It counts as biochemical.
The next series concerns the target hERG (Homo sapiens (Human), UniProt Q12809). The experiment in a line: hERG profiling, fluorescent Tracer binding competition (FP). Particulars: for SI / selectivity ratio at 4 h: human, pH 7.5. The procedure: Compounds were prepared as 10 mM DMSO stock and stored at −80° C.
Assay Format: The assay is based on the competition of fluorescently labeled Tracer binding to the membrane preparation containing hERG.
Assay conditions: 1 nM Predictor™ hERG Tracer Red; 1X Predictor™ hERG Membrane
Assay Procedure: Compounds in DMSO were added into the Membrane mixture by using Acoustic Technology. Tracer was added, and gentled mixed in the dark. FP was measured after 4 hours incubation at room temperature and mP calculated.
Background: hERG is a cardiac potassium channel; its block is linked to QT prolongation.

The next series has as its target CYP3A4 (Homo sapiens (Human), UniProt P08684). Description: CYP3A4 IC50. The note with it: unit given as mM. It counts as in vitro ADME.
The target in another series is CYP2D6 (Homo sapiens (Human), UniProt P10635). Description: CYP2D6 IC50. It counts as in vitro ADME. The note with it: unit given as mM.
Chain of CYP2D6 (P10635 whole entry, species assumed): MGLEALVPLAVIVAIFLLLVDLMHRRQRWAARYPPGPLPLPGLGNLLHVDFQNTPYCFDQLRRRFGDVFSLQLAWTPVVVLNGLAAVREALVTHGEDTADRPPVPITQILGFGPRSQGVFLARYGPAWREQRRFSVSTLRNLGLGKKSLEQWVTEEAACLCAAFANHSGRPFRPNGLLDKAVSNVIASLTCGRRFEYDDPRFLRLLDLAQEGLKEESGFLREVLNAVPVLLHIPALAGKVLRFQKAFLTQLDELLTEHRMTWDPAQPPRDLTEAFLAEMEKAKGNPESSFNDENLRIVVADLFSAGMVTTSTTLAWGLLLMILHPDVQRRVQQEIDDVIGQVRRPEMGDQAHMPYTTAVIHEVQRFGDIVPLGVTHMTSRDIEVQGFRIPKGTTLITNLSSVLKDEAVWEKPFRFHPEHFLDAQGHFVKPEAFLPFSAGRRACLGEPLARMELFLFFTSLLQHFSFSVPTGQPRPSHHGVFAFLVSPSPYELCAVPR
[1] abbreviates: 10 μM ATP, first run (TK3-141, TK3-144, CD-1-002), read-out: Compound IC50 ABL1 Data 1.
Where [2] appears, read: 10 μM ATP, first run, average of duplicates, read-out: Compound IC50 ABL1 Avg.
The mark [3] stands for this setting: 10 μM ATP, first run, read-out: Compound IC50 ABL1 Data 2.
The mark [4] stands for this setting: summary table, read-out: Abl1 IC50.
[5] abbreviates: IC50 of Tracer Binding hERG AVERAGE, first run, average of duplicates.
Setting [6] is: IC50 of Tracer Binding hERG Data 1, first run, 4 hours incubation.
The mark [7] stands for this setting: IC50 of Tracer Binding hERG Data 2, first run.
Where [8] appears, read: hERG IC50, summary table, unit given as mM.
Where [9] appears, read: 10 μM ATP, second run (CD-1-051, ZD-3-167, CD-1-067), read-out: Compound IC50 ABL1 Data 1.
The mark [10] stands for this setting: 10 μM ATP, second run, average of duplicates, read-out: Compound IC50 ABL1 Avg.
The mark [11] stands for this setting: 10 μM ATP, second run, read-out: Compound IC50 ABL1 Data 2.
[12] abbreviates: Average hERG (IC50), second run, average.
[13] abbreviates: IC50 of Tracer Binding hERG Data 1, second run.
Where [14] appears, read: IC50 of Tracer Binding hERG Data 2, second run.

For orientation: IC50 means the concentration that gives 50% inhibition.

Structures are written as SMILES. Where two headings read alike, the source gives them in different places.

Chain of CYP3A4 (P08684 whole entry, species assumed): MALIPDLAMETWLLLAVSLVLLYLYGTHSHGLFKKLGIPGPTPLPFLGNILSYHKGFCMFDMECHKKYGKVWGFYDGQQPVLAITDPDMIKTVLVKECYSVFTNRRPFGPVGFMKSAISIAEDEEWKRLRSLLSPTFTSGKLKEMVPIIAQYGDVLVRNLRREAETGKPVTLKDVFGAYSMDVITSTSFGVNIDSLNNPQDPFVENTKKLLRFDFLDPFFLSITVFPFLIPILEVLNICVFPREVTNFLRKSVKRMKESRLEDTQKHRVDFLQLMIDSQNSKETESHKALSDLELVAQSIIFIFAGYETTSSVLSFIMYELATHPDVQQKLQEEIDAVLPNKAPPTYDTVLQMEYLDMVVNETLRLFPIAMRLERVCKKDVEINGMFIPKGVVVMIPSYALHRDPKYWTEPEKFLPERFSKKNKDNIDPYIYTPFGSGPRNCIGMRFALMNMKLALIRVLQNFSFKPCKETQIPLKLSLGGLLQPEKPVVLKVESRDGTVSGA
Chain of ABL1 (P00519 whole entry): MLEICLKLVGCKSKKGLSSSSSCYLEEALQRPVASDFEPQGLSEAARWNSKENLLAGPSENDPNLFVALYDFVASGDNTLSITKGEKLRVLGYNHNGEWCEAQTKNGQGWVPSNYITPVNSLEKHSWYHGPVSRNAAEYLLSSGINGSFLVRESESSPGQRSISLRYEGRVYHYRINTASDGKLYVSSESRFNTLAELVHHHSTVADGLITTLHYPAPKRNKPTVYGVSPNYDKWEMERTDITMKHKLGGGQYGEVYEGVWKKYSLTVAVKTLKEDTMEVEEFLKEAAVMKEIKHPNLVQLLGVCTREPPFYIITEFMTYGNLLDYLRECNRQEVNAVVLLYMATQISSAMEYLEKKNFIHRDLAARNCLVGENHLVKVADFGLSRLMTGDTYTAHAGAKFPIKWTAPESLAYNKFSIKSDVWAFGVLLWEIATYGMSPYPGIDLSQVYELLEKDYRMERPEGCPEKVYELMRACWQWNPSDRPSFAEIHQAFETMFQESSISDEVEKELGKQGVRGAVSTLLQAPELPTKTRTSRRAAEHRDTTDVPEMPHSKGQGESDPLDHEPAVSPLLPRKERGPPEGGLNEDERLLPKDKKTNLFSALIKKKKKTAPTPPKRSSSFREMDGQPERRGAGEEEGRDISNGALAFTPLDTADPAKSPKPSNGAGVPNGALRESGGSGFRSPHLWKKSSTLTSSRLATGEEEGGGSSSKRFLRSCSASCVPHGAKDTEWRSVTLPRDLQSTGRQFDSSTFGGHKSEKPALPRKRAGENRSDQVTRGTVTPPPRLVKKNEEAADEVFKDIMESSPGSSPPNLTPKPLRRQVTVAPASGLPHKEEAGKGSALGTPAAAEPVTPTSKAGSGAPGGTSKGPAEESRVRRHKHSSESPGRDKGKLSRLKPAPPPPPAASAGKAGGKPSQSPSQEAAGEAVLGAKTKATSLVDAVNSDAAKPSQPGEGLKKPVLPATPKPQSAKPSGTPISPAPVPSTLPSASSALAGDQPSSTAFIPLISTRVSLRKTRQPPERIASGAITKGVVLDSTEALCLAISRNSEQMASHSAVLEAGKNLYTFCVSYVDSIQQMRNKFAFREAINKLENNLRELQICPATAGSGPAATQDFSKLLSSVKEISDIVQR
Chain of hERG (Q12809 whole entry): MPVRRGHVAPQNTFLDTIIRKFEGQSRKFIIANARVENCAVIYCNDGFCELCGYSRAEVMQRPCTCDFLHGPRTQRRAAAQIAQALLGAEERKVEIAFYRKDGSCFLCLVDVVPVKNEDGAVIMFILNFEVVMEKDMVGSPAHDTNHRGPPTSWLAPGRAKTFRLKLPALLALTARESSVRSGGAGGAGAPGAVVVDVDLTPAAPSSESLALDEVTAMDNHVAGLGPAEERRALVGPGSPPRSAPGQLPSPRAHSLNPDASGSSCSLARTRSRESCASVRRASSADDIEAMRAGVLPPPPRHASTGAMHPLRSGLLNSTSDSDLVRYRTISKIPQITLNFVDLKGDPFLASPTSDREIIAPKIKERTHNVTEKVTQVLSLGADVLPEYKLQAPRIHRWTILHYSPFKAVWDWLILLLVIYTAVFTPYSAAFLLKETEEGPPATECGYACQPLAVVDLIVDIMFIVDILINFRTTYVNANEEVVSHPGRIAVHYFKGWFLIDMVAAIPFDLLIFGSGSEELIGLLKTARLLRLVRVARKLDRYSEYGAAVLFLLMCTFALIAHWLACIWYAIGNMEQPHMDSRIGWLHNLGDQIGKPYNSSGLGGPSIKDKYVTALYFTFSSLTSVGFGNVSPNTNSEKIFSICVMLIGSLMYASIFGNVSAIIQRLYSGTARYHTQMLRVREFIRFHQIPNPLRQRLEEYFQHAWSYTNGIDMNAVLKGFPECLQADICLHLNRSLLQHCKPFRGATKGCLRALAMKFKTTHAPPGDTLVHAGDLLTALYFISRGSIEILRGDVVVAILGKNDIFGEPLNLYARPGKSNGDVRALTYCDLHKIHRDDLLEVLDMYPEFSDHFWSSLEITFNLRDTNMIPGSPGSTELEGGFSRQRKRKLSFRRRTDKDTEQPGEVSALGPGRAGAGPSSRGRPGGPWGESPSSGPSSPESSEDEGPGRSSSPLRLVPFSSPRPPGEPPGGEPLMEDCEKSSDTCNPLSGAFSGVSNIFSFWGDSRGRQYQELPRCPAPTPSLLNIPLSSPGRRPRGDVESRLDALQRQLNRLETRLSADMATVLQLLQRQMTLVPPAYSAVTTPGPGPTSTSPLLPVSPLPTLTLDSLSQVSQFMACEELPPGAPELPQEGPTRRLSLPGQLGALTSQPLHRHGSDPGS

Regarding `COCCN1CCN(Cc2ccc(NC(=O)c3ccc(C)c(C#Cc4cnc5cccnn45)c3)cc2C2CC2)CC1` [CD-1-002, N-[3-cyclopropyl-4-[[4-(2-methoxyethyl)piperazin-1-yl]methyl]phenyl]-3-(2-imidazo[1,2-b]pyridazin-3-ylethynyl)-4-methyl-benzamide], the IC50 on ABL1 (setting [1]) turned out to be 0.686 nM; at ABL1 (setting [2]), 0.643 nM; at ABL1 (setting [3]), 0.601 nM; on ABL1 (setting [4]) it was 0.64 nM; on hERG (setting [5]), 81 nM; at hERG (setting [6]), 62 nM. The IC50 is 100 nM on hERG (setting [7]), 81 nM on hERG (setting [8]), 0.0128 mM at CYP3A4 and 0.0248 mM on CYP2D6. The SI on hERG came out at 126.

As to `Cc1ccc(C(=O)Nc2ccc(CN3CCc4cn[nH]c4C3)c(Cl)c2)cc1C#Cc1cnc2cccnn12` [CD-1-051, N-[3-chloro-4-(1,4,5,7-tetrahydropyrazolo[3,4-c]pyridin-6-ylmethyl)phenyl]-3-(2-imidazo[1,2-b]pyridazin-3-ylethynyl)-4-methyl-benzamide], the IC50 at ABL1 (setting [9]) was 11 nM; on ABL1 (setting [10]), 9.93 nM; on ABL1 (setting [11]), 8.87 nM; at ABL1 (setting [4]), 9.93 nM; on hERG (setting [12]), 5020 nM; at hERG (setting [13]), 3840 nM. Moreover, the IC50 was found to be 6200 nM at hERG (setting [14]), 5020 nM at hERG (setting [8]), 0.00557 mM against CYP3A4 and 0.03 mM at CYP2D6. The compound further displayed an SI at hERG of 506. For the same compound, the selectivity ratio at 4 h on hERG came to 506.

As for `Cc1ccc(C(=O)Nc2ccc(CN3Cc4ccc(O)cc4C3)c(Cl)c2)cc1C#Cc1cnc2cccnn12` [CD-1-067, N-(3-chloro-4-((5-hydroxyisoindolin-2-yl)methyl)phenyl)-3-(imidazo [1,2-b]pyridazin-3-ylethynyl)-4-methylbenzamide], the IC50 on ABL1 (setting [9]) was above 30 nM; on ABL1 (setting [11]) it was above 30 nM; at ABL1 (setting [4]), above 30 nM; on CYP3A4, 0.00461 mM; on CYP2D6, 0.00339 mM. Besides, the SI at hERG is on record as below 26.

As to `Cc1cn(-c2cc(NC(=O)c3ccc(C)c(Nc4nccc(-c5cccnc5)n4)c3)cc(C(F)(F)F)c2)cn1` [Nilotinib, reference compound], the IC50 is 0.00058 mM against CYP3A4 and above 0.1 mM against CYP2D6.

On to `Cc1ccc(C(=O)Nc2ccc(CN3CCN(CCO)CC3)c(Cl)c2)cc1C#Cc1cnc2cccnn12` [TK3-141, N-[3-chloro-4-[[4-(2-hydroxyethyl)piperazin-1-yl]methyl]phenyl]-3-(2-imidazo[1,2-b]pyridazin-3-ylethynyl)-4-methyl-benzamide], for which the IC50 on ABL1 (setting [1]) amounted to 0.31 nM; on ABL1 (setting [2]), 0.297 nM; at ABL1 (setting [3]) it was 0.285 nM; on ABL1 (setting [4]), 0.3 nM; at hERG (setting [5]), 345 nM; on hERG (setting [6]) it was 138 nM. In addition, the IC50 at hERG (setting [7]) turned out to be 552 nM; at hERG (setting [8]) it was 345 nM; against CYP3A4 it was 0.00801 mM; on CYP2D6, 0.00102 mM. Also, at hERG, the SI was 1158.

Take `Cc1ccc(C(=O)Nc2ccc(CN3CCN(CCO)CC3)c(C3CC3)c2)cc1C#Cc1cnc2cccnn12` [TK3-144, N-[3-cyclopropyl-4-[[4-(2-hydroxyethyl)piperazin-1-yl]methyl]phenyl]-3-(2-imidazo[1,2-b]pyridazin-3-ylethynyl)-4-methyl-benzamide]: the 50% inhibitory concentration (IC50) on ABL1 (setting [1]) came to 0.413 nM; on ABL1 (setting [2]) it was 0.392 nM; on ABL1 (setting [3]) it was 0.371 nM; on ABL1 (setting [4]) it was 0.39 nM; at hERG (setting [5]), 103 nM; at hERG (setting [6]), 105 nM. The IC50 at hERG (setting [7]) came out at 102 nM; on hERG (setting [8]) it was 103 nM; on CYP3A4, 0.0118 mM; against CYP2D6 it was 0.00199 mM. For the same compound, at hERG, the SI is given as 263.

As to `Cc1ccc(C(=O)Nc2ccc(CN3Cc4cn[nH]c4C3)c(Cl)c2)cc1C#Cc1cnc2cccnn12` [ZD-3-167, N-[3-chloro-4-(4,6-dihydro-1H-pyrrolo[3,4-c]pyrazol-5-ylmethyl)phenyl]-3-(2-imidazo[1,2-b]pyridazin-3-ylethynyl)-4-methyl-benzamide], the IC50 at ABL1 (setting [9]) is 11.1 nM; on ABL1 (setting [10]) it was 10.6 nM; at ABL1 (setting [11]) it was 10.1 nM; at ABL1 (setting [4]), 10.6 nM; on hERG (setting [12]), 10200 nM; on hERG (setting [13]), above 10000 nM. Further, the IC50 on hERG (setting [14]) was above 10000 nM; on hERG (setting [8]), above 10000 nM; against CYP3A4, 0.00728 mM; on CYP2D6, 0.0137 mM. Moreover, the SI on hERG is above 943. At hERG, the selectivity ratio at 4 h was 963.

For the origin of these results see patent US12398142B2, “Abelson non-tyrosine kinase compounds for the treatment of neurodegenerative diseases” (Emory University, priority 2019, dated 2025).
